Results: ChEMBL document CHEMBL1127963, “Vasoactive eicosanoids: Synthesis of 12,20-dihydroxyeicosa-5(Z),8(Z),10(E),14(Z)-tetraenoic acid via a novel chiral bis-lactol” (1994)

Species: Canis familiaris
Assay: Compound was tested relaxation of contracted coronary arteries of canine at 5 x 10-e M (p<0.01)
Format: functional, Canis lupus familiaris

Q: `O=C(O)CCC/C=C\C/C=C\C=C\C(O)C/C=C\CCCCCO` (stereo unspecified) was tested. Which Relation did it give?
A: 48%
